Earlier results as cited in patent US20210330725A1, “GARCINIA MANGOSTANA EXTRACT FOR PROMOTING HAIR GROWTH” (PIERRE FABRE DERMO-COSMETIQUE, priority 2018, published 2021).

System: hair follicles
Conditions: mice

Q: With `C[C@@H]1CCN(C(=O)CC#N)C[C@@H]1N(C)c1ncnc2[nH]ccc12` [Tofacitinib, tofacitinib] as the compound, how does the “effect on hair cycle of topical treatment in telogen phase” value read?
A: rapid re-entry at the beginning of anagen phase
